Test results published in article PMC11272821, “Mechanistic safety assessment via multi-omic characterisation of systemic pathway perturbations following in vivo MAT2A inhibition” (Archives of Toxicology, 2024).

Experiments:
MTAP KO HCT116 xenograft = test system: MTAP KO HCT116 xenograft; design: method as in Atkinson et al. [2024]; conditions: ref Atkinson et al. [2024], cited from earlier work
HCT116 MTAP KO cells = assay: HCT116 cell SAM assay, MTAP KO; assay type: cell-based
Description: The structure and in vitro properties of the compound are shown in Table 1 together with potency in the HCT116 isogenic cell line (MTAP WT and KO) and in the MAT2A biochemical assay (SAM endpoint).

D1 dopamine receptor = target: T1, D1 dopamine receptor (Homo sapiens, UniProt P21728); assay: Radioligand binding assay
T1 construct: Eurofins
Method: (§1) Secondary pharmacology assays were performed at Eurofins using standard experimental techniques against a total of 86 targets across a broad pharmacological space. Assay details along with experimental protocols are described at https://www.eurofinsdiscoveryservices.com. […] Assays measuring substrate turnover or phosphorylation by isolated proteins were used for kinase and enzyme targets, allowing direct determination of the mode of action of the compounds. […] Assays were run in eight points concentration response mode with half log dilutions and IC50, EC50 or Ki (Cheng and Prusoff [1973]) values determined.

5-HT7 receptor = target: T2, 5-HT7 receptor (Homo sapiens, UniProt P34969); assay: Radioligand binding assay
T2 construct: Eurofins
Method: as §1

5-HT2B receptor = target: T3, 5-HT2B receptor (Homo sapiens, UniProt P41595); assay: Radioligand binding assay
T3 construct: Eurofins
Method: as §1

M2 muscarinic receptor = target: T4, M2 muscarinic receptor (Homo sapiens, UniProt P08172); assay: Radioligand binding assay
T4 construct: Eurofins
T4 sequence (P08172 1-466): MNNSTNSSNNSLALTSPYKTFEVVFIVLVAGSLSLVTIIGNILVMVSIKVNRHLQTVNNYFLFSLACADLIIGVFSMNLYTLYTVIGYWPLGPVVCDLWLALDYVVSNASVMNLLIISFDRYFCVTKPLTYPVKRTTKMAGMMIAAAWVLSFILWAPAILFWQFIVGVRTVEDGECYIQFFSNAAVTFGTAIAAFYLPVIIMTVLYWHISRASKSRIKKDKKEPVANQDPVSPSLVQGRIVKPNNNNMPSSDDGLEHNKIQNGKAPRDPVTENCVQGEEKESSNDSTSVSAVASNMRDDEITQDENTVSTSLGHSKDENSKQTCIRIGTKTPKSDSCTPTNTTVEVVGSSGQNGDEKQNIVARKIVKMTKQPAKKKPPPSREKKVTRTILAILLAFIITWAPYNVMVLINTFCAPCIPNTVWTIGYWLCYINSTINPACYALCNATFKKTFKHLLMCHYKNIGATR
Method: as §1

δ opioid Receptor = target: T5, δ opioid Receptor (Homo sapiens, UniProt P41143); assay: Radioligand binding assay
T5 construct: Eurofins
Method: as §1

A2A adenosine receptor = target: T6, A2A adenosine receptor (Homo sapiens, UniProt P29274); assay: Radioligand binding assay
T6 construct: Eurofins
T6 sequence (P29274 whole entry): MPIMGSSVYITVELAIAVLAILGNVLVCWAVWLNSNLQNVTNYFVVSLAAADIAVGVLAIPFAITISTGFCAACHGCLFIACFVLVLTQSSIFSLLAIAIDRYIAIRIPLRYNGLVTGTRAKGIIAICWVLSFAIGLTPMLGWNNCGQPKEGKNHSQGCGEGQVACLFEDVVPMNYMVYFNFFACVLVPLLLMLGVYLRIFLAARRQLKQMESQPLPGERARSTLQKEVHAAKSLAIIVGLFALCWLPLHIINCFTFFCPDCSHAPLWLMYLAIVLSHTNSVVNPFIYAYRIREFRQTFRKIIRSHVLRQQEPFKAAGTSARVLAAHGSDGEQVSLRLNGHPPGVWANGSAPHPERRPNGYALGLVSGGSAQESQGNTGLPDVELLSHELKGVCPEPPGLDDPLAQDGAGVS
Method: as §1

[1] = target: T7, CCK1 cholecystokinin receptor (Homo sapiens, UniProt P32238); assay: Radioligand binding assay
T7 construct: Eurofins
T7 sequence (P32238 whole entry): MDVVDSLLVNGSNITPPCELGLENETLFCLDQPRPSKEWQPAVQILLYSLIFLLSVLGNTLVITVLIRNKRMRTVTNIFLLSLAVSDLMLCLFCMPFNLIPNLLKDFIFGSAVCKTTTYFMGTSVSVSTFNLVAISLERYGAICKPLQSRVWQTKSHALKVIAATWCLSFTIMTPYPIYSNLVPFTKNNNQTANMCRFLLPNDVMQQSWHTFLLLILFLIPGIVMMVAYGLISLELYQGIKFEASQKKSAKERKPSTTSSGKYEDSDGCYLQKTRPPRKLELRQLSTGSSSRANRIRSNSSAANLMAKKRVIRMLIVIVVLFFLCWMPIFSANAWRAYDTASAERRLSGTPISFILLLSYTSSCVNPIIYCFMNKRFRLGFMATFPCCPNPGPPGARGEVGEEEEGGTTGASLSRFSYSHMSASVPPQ
Method: as §1

[2] = target: T8, Glucocorticoid Receptor NR3C1 (Homo sapiens, UniProt P04150); assay: Radioligand binding assay
T8 construct: Eurofins
Method: as §1

CB1 cannabinoid receptor = target: T9, CB1 cannabinoid receptor (Homo sapiens, UniProt P21554); assay: Radioligand binding assay
T9 construct: purchased Eurofins
T9 sequence (P21554 whole entry): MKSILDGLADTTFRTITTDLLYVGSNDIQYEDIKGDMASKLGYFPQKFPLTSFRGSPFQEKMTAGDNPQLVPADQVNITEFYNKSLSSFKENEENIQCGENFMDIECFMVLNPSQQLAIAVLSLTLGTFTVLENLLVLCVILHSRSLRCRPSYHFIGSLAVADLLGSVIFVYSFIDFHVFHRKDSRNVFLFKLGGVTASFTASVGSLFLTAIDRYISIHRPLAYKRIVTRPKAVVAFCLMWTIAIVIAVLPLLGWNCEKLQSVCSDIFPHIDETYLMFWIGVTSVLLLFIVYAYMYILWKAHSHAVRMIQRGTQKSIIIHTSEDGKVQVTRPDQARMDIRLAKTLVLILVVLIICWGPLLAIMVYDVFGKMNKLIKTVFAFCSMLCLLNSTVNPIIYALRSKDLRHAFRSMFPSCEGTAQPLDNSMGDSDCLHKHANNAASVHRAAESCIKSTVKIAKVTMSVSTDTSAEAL
Method: as §1

M1 muscarinic receptor = target: T10, M1 muscarinic receptor (Homo sapiens, UniProt P11229); assay: Radioligand binding assay
T10 construct: Eurofins
Method: as §1

A1 adenosine receptor = target: T11, A1 adenosine receptor (Homo sapiens, UniProt P30542); assay: Radioligand binding assay
T11 construct: purchased Eurofins
Method: as §1

NK1 neurokinin receptor = target: T12, NK1 neurokinin receptor (Homo sapiens, UniProt P25103); assay: Radioligand binding assay
T12 construct: Eurofins
Method: as §1

α1A adrenoceptor = target: T13, α1A adrenoceptor (Homo sapiens, UniProt P35348); assay: Radioligand binding assay
T13 construct: Eurofins
T13 sequence (P35348 whole entry): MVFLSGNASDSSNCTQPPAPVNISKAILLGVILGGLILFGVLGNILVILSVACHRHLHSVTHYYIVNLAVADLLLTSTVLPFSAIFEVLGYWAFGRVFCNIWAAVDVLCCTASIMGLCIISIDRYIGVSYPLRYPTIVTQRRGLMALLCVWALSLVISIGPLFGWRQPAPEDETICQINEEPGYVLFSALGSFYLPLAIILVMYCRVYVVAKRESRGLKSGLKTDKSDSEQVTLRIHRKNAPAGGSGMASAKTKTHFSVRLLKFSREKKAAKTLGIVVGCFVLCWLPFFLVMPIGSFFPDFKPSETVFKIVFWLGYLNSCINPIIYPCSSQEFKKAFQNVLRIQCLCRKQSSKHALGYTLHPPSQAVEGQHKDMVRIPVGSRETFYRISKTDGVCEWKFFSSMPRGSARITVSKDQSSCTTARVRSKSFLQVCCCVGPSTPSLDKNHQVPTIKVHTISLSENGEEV
Method: as §1

κ opioid receptor = target: T14, κ opioid receptor (Homo sapiens, UniProt P41145); assay: Radioligand binding assay
T14 construct: Eurofins
T14 sequence (P41145 whole entry): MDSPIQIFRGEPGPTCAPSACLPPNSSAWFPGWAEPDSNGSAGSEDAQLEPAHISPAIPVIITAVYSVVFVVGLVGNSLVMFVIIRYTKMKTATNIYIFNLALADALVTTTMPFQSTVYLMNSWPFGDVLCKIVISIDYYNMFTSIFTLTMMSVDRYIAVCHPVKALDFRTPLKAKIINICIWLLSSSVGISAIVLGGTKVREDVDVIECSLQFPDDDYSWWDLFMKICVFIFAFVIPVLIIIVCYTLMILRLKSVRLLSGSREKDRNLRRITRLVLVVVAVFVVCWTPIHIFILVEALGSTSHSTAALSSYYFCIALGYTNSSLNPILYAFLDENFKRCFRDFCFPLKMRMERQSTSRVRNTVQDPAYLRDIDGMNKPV
Method: as §1

[3] = target: T15, Kinase insert domain receptor kinase (KDR) (Homo sapiens, UniProt P35968); assay: Enzyme assay; assay type: biochemical
T15 construct: Eurofins
T15 sequence (P35968 20-1356): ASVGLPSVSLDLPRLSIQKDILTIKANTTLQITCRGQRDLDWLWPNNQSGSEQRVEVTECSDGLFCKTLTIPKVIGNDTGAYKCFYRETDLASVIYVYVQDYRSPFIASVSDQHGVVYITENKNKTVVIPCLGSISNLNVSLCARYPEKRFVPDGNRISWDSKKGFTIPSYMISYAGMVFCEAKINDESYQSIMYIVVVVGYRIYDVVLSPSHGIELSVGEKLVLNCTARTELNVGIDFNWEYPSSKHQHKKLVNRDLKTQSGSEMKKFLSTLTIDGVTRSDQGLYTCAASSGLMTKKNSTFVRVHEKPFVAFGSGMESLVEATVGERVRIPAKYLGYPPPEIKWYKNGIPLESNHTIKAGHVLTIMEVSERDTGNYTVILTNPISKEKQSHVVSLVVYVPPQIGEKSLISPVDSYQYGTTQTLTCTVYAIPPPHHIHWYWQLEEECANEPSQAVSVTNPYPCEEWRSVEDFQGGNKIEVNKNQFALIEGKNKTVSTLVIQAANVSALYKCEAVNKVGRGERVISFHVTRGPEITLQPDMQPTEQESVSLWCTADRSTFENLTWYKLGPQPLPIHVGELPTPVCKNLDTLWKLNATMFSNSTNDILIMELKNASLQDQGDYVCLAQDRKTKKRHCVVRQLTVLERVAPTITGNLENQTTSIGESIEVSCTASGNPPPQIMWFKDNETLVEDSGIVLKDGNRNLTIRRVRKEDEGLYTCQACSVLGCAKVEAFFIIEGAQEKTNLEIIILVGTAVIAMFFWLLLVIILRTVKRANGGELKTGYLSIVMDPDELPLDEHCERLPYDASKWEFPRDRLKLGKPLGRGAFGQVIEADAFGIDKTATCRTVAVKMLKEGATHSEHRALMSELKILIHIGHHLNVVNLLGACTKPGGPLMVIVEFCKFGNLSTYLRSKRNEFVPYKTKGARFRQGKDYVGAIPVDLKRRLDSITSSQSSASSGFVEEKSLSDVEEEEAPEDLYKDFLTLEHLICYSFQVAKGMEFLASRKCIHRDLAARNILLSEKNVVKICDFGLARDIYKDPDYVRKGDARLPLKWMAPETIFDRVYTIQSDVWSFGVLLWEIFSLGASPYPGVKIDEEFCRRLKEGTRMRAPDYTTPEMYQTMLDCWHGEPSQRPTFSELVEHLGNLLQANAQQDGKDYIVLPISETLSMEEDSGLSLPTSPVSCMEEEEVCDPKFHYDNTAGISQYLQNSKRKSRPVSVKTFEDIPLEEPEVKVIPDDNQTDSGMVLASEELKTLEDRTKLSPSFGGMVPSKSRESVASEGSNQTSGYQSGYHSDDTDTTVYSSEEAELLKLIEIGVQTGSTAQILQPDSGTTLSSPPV
Method: as §1

[4] = target: T16, Glycogen synthase kinase-3 β (Homo sapiens, UniProt P49841); assay: Enzyme assay; assay type: biochemical
T16 construct: Eurofins
Method: as §1

Aurora A kinase = target: T17, Aurora A kinase (Homo sapiens, UniProt O14965); assay: Enzyme assay; assay type: biochemical
T17 construct: Eurofins
T17 sequence (O14965 whole entry): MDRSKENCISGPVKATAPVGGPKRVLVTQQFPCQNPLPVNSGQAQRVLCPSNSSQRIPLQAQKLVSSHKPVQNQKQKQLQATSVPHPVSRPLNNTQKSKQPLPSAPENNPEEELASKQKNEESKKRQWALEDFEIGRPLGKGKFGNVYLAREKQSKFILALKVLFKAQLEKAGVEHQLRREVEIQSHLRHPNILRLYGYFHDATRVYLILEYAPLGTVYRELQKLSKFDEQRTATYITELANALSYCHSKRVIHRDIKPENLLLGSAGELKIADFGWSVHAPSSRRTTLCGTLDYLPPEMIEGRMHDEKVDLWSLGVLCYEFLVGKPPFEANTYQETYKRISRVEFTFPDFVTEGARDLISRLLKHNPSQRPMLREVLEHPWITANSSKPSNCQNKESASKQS
Method: as §1

[5] = target: T18, Fibroblast growth factor receptor 1 kinase (FGFR1 kinase) (Homo sapiens, UniProt P11362); assay: Enzyme assay; assay type: biochemical
T18 construct: Eurofins
Method: as §1

[6] = target: T19, Prostaglandin-endoperoxide synthase 2 (COX2) (Homo sapiens, UniProt P35354); assay: Enzyme assay; assay type: biochemical
T19 construct: Eurofins
T19 sequence (P35354 18-604): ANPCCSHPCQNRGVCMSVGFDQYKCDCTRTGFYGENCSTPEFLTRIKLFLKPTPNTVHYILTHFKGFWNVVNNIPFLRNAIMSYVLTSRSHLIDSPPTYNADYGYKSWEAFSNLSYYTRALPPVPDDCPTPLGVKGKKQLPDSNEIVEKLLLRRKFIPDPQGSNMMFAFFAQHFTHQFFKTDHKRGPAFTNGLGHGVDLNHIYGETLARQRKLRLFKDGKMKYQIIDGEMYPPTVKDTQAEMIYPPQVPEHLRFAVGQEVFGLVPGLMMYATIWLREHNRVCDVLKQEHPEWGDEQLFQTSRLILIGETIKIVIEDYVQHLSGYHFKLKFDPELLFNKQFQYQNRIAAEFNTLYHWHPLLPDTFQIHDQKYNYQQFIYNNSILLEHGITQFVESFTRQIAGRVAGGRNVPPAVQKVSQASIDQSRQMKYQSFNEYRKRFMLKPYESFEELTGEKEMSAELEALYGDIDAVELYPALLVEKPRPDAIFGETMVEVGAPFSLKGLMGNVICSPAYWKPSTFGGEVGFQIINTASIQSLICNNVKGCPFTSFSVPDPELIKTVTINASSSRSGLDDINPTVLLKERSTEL
Method: as §1

Phosphodiesterase PDE4D2 = target: T20, Phosphodiesterase PDE4D2 (Homo sapiens, UniProt Q08499); assay: Enzyme assay; assay type: biochemical
T20 construct: Eurofins
T20 sequence (Q08499 303-809 limits assumed): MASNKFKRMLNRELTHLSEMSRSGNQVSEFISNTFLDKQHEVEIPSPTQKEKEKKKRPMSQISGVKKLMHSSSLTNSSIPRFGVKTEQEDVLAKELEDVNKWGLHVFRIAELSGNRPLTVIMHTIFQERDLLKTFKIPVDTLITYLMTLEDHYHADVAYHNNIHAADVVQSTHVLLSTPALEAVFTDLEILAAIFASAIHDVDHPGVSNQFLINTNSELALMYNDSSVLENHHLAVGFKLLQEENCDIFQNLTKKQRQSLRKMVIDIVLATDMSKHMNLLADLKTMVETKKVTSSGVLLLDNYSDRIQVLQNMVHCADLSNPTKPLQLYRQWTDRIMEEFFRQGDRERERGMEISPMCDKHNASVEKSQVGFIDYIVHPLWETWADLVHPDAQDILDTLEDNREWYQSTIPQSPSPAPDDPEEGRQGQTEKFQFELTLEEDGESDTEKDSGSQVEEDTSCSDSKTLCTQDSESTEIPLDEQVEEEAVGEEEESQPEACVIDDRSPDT
Method: as §1

Thromboxane A2 synthase = target: T21, Thromboxane A2 synthase (Homo sapiens, UniProt P24557); assay: Enzyme assay; assay type: biochemical
T21 construct: Eurofins
Method: as §1

[7] = target: T22, Phosphodiesterase PDE10A2 (Homo sapiens, UniProt Q9Y233); assay: Enzyme assay; assay type: biochemical
T22 construct: Eurofins
Method: as §1

[8] = target: T23, Neurotrophic receptor kinase 1 (NRK1) (Homo sapiens, UniProt P04629); assay: Enzyme assay; assay type: biochemical
T23 construct: Eurofins
Method: as §1

THP-1 = assay: THP1 cytotoxicity; assay type: cell-based; conditions: read-out: THP-1 Cytotox IC50
Description: Full curve IC50 (µM) for hERG (human ether-a-go-go-related gene) and the cardiac ion channel panel (sodium and potassium ion channels; Nav1.5, IKs, Kv4.3), along with the L-type Calcium channel (Cav-1.2 Ver; verapamil, DIL; diltiazem), HepG2 C3A 3D spheroids, HepG2 C3A (2D cultures in glucose or galactose media), and THP1 cytotoxicity.

[9] = design: method as in Atkinson et al. [2024]; conditions: ref Atkinson et al. [2024]; cited from earlier work
[10] = Rat plasma fraction unbound by rapid equilibrium dialysis; assay type: in vitro ADME

Cn1cc2cc(-c3cc4[nH]nc(C5CC5)c4n(-c4ccc(OC(F)F)cc4)c3=O)ccc2n1 [AZ’9567]
depletion of SAM (MTAP KO HCT116 xenograft; 20 mg/kg BID, day 24): > 90%
depletion of SDMA (MTAP KO HCT116 xenograft; 20 mg/kg BID, day 24): > 90%
anti-tumour response (MTAP KO HCT116 xenograft; 20 mg/kg BID): robust anti-tumour response
anti-tumour and PD modulation (SDMA and SAM) (MTAP KO HCT116 xenograft; 3, 10, 30 mg/kg BID): robust anti-tumour and PD modulation
HCT116 cell SAM MTAP KO pIC50 (HCT116 MTAP KO cells): 8.9
Ki (D1 dopamine receptor): 35 µM
Ki (5-HT7 receptor): 2.9 µM
Ki (5-HT2B receptor): 32.4 µM
Ki (M2 muscarinic receptor): 1.8 µM
Ki (δ opioid Receptor): 12.8 µM
Ki (A2A adenosine receptor): 2.2 µM
Ki [1]: 25.3 µM
Ki [2]: 24.8 µM
Ki (CB1 cannabinoid receptor): 30.3 µM
Ki (M1 muscarinic receptor): 69.7 µM
Ki (A1 adenosine receptor): 2.6 µM
Ki (NK1 neurokinin receptor): 10.2 µM
Ki (α1A adrenoceptor): 12.7 µM
Ki (κ opioid receptor): 6 µM
IC50 [3]: 9.5 µM
IC50 [4]: 1.6 µM
IC50 (Aurora A kinase): 84.1 µM
IC50 [5]: 49.9 µM
IC50 [6]: 44 µM
IC50 (Phosphodiesterase PDE4D2): 4.1 µM
IC50 (Thromboxane A2 synthase): 9 µM
IC50 [7]: 10.8 µM
IC50 [8]: 38.3 µM
IC50 (THP-1): > 50 µM
brain penetrance Kpu,u [9]: 0.03 ± 0.01
rat plasma fraction unbound [10]: 0.00614
